Laboratory results: patent US20200399329A1, “ANTIMICROBIAL PEPTIDES” (priority 2015, published 2020)
In brackets after ≈: the same amount, converted by molar mass. Where a SMILES comes first, the peptide text is derived from it. Bridges are numbered along the chain shown (N, C = ends).

Legend:
[1] = tested on: K. pneu NDM1 BAA-2473; type: cell-based, Klebsiella pneumoniae
Procedure: (§1) In order to determine the MIC values of the peptides, growth and inhibition of various bacteria were monitored after treatment with the peptides of the invention (Table B). E. coli, K. pneumoniae, P. aeruginosa and Salmonella bacteria were cultured at 37° C. and at 5×10^6 CFU/ml in a standard 96-well-plate, in Mueller Hinton broth. […] The growth of the bacteria was continuously monitored via spectrophotometry at a wave-length of 625 nm. As bacterial growth progresses, Optical density at 625 nm (OD625 nm) values increase, and where the bacterial growth is inhibited, OD625 nm values remain constant. The experimental system and parameters described herein were used to determine the MIC values of OMN3, OMN5, OMN8 and OMN9 on various bacteria strains (Table B). Using the standard MHB MIC testing for antibiotic activity

[2] = tested on: K . pneu KPC + BAA-2344; type: cell-based, Klebsiella pneumoniae
Procedure: as §1

[3] = tested on: K. pneu Sens. 700603 QC strain; type: cell-based, K. pneumoniae
Procedure: as §1

[4] = tested on: E. coli ESBL BAA-198; type: cell-based, Escherichia coli
Procedure: as §1

[5] = tested on: E. coli Sens. 25922 QC strain; type: cell-based, Escherichia coli
Procedure: as §1

[6] = tested on: E. coli CR BAA-2452; type: cell-based, Escherichia coli
Procedure: as §1

[7] = tested on: E. coli strains; type: cell-based
Procedure: as §1

[8] = tested on: P. aeruginosa BAA-2795; type: cell-based, Pseudomonas aeruginosa
Procedure: as §1

[9] = tested on: P. aeruginosa BAA-2796; type: cell-based, Pseudomonas aeruginosa
Procedure: as §1

MIC [1]: 32 mg/L (≈ 7.7 µM) | MIC [2]: 64 mg/L (≈ 15.4 µM) | MIC [3]: 32 mg/L (≈ 7.7 µM) | MIC [4]: 4 mg/L (≈ 0.963 µM) | MIC [5]: 8 mg/L (≈ 1.93 µM) | MIC [6]: 8 mg/L (≈ 1.93 µM) | MIC for E. coli strains [7]: 4 to 8 mg/L | MIC [8]: 64 mg/L (≈ 15.4 µM) | MIC [9]: 64 mg/L (≈ 15.4 µM)
SMILES: CC[C@H](C)[C@@H]1NC(=O)CNC(=O)[C@H](CC(N)=O)NC(=O)[C@H](CCCNC(=N)N)NC(=O)[C@H]([C@@H](C)CC)NC(=O)[C@H](CC(N)=O)NC(=O)[C@H](CCCNC(=N)N)NC(=O)CNC(=O)[C@H](C(C)C)NC(=O)[C@H](CCCCN)NC(=O)[C@H](CCC(=O)O)NC(=O)[C@H]([C@@H](C)CC)NC(=O)[C@H](CCCCN)NC(=O)[C@H](CCCCN)NC(=O)[C@H](Cc2ccccc2)NC(=O)[C@H]([C@@H](C)CC)NC(=O)[C@H](CCCCN)NC(=O)[C@H](Cc2c[nH]c3ccccc23)NC(=O)[C@H](CCCCN)NC(=O)[C@@H](NC(=O)[C@@H](N)CCSC)CSSC[C@@H](C(=O)O)NC(=O)[C@H](CC(C)C)NC(=O)[C@H](C)NC(=O)[C@H](CCCCN)NC(=O)[C@H](C)NC(=O)[C@H](CCC(=O)O)NC(=O)CNC(=O)[C@H](CC(C)C)NC(=O)[C@H](C(C)C)NC(=O)[C@H](C)NC(=O)[C@H](C(C)C)NC(=O)[C@H](C)NC(=O)[C@@H]2CCCN2C(=O)CNC(=O)[C@H](C)NC(=O)[C@H](CCCCN)NC(=O)[C@H]([C@@H](C)CC)NC1=O [OMN9] (H-MCKWKIFKKIEKVGRNIRNGIIKAGPAVAVLGEAKALC-OH; disulfide 2-38; N-terminus and C-terminus assumed)
